Experimental data: ChEMBL document CHEMBL5257030, “Antioxidant, anticancer activities and mechanistic studies of the flavone glycoside diosmin and its oxidovanadium(IV) complex. Interactions with bovine serum albumin” (Bioorg Med Chem, 2016)
Calls of active or inactive are those of the source. No cut-off for these calls is given here.

What was measured:
Albumin [1] = target: T1, Albumin (Bos taurus, UniProt P02769); test: Binding affinity to bovine serum albumin assessed as free energy change at 298 K; conditions: cattle
Albumin [2] = target: T1, Albumin; test: Binding affinity to bovine serum albumin assessed as free energy change at 303 K; conditions: cattle
SK-BR-3 [3] = test: Cytotoxicity against human SK-BR-3 cells assessed as caspase3/7 activation at 10 uM after 24 hrs by fluorescence assay relative to control; type: functional
A549 [4] = test: Antiproliferative activity against human A549 cells after 72 hrs by Alamar blue assay; type: functional, cell-based; conditions: A549, 72 h
[5] = Antioxidant activity assessed as reduction in PMS induced superoxide anion activity preincubated for 15 mins followed by PMS addition and measured after 5 mins by NBT assay; type: functional; conditions: time 20.0 min
SK-BR-3 [6] = test: Antiproliferative activity against human SK-BR-3 cells assessed as inhibition of cell growth measured after 24 hrs by MTT assay; type: functional, cell-based; conditions: SK-BR-3, 24 h
Albumin [7] = target: T1, Albumin; test: Binding affinity to bovine serum albumin assessed as quenching rate constant at 303 K after 1 hr by luminescence spectrometric analysis; conditions: cattle
Albumin [8] = target: T1, Albumin; test: Binding affinity to bovine serum albumin assessed as association constant at 303 K after 1 hr by luminescence spectrometric analysis; conditions: cattle
[9] = Antioxidant activity assessed as delay in time of AAPH-induced pyranine consumption at 100 uM by spectrophotometric analysis; type: functional
A549 [10] = test: Cytotoxicity against human A549 cells assessed as reduction in cell viability up to 100 uM measured after 24 hrs by crystal violet staining based assay; type: functional
MDA-MB-231 [11] = test: Cytotoxicity against human MDA-MB-231 cells assessed as caspase3/7 activation at 10 uM after 24 hrs by fluorescence assay relative to control; type: functional
MDA-MB-231 [12] = test: Cytotoxicity against human MDA-MB-231 cells assessed as disruption of mitochondrial membrane potential by measuring TMRM level in mitochondria at 10 uM after 24 hrs by fluorescence assay relative to control; type: functional
Albumin [13] = target: T1, Albumin; test: Binding affinity to bovine serum albumin assessed as Stem-Volmer quenching constant at 303 K after 1 hr by luminescence spectrometric analysis; conditions: cattle
Albumin [14] = target: T1, Albumin; test: Binding affinity to bovine serum albumin assessed as Stem-Volmer quenching constant at 298 K after 1 hr by luminescence spectrometric analysis; conditions: cattle
A549 [15] = test: Cytotoxicity in human A549 cells assessed as increase in DHR123 oxidation to form rhodamine 123 measured after 30 mins by fluorescence spectroscopy; type: functional, cell-based
T47D [16] = test: Cytotoxicity against human T47D cells assessed as disruption of mitochondrial membrane potential by measuring TMRM level in mitochondria at 10 uM after 24 hrs by fluorescence assay relative to control; type: functional
[17] = Antioxidant activity assessed as reduction in ascorbate-iron-H2O2-mediated hydroxy radical generation at 100 uM after 30 mins by thiobarbituric acid method; type: functional
Albumin [18] = target: T1, Albumin; test: Binding affinity to bovine serum albumin assessed as quenching rate constant at 298 K after 1 hr by luminescence spectrometric analysis; conditions: cattle
T47D [19] = test: Antiproliferative activity against human T47D cells assessed as inhibition of cell growth measured after 24 hrs by MTT assay; type: functional, cell-based
SK-BR-3 [20] = test: Cytotoxicity against human SK-BR-3 cells assessed as disruption of mitochondrial membrane potential by measuring TMRM level in mitochondria at 10 uM after 24 hrs by fluorescence assay relative to control; type: functional
MDA-MB-231 [21] = test: Cytotoxicity against human MDA-MB-231 cells assessed as ROS production at 10 uM after 24 hrs by CMH2DCFDA probe-based fluorescence assay relative to control; type: functional
Albumin [22] = target: T1, Albumin; test: Binding affinity to bovine serum albumin assessed as association constant at 298 K after 1 hr by luminescence spectrometric analysis; conditions: cattle
Albumin [23] = target: T1, Albumin; test: Binding affinity to bovine serum albumin assessed as association constant at 310 K after 1 hr by luminescence spectrometric analysis; conditions: cattle
T47D [24] = test: Cytotoxicity against human T47D cells assessed as caspase3/7 activation at 10 uM after 24 hrs by fluorescence assay relative to control; type: functional
T47D [25] = test: Cytotoxicity against human T47D cells assessed as ROS production at 10 uM after 24 hrs by CMH2DCFDA probe-based fluorescence assay relative to control; type: functional
SK-BR-3 [26] = test: Cytotoxicity against human SK-BR-3 cells assessed as ROS production at 10 uM after 24 hrs by CMH2DCFDA probe-based fluorescence assay relative to control; type: functional
Albumin [27] = target: T1, Albumin; test: Binding affinity to bovine serum albumin assessed as free energy change at 310 K; conditions: cattle
Albumin [28] = target: T1, Albumin; test: Binding affinity to bovine serum albumin assessed as Stem-Volmer quenching constant at 310 K after 1 hr by luminescence spectrometric analysis; conditions: cattle
Albumin [29] = target: T1, Albumin; test: Binding affinity to bovine serum albumin assessed as change in enthalpy; conditions: cattle
MDA-MB-231 [30] = test: Antiproliferative activity against human MDA-MB-231 cells assessed as inhibition of cell growth measured after 24 hrs by MTT assay; type: functional, cell-based; conditions: MDA-MB-231, 24 h
Albumin [31] = target: T1, Albumin; test: Binding affinity to bovine serum albumin assessed as quenching rate constant at 310 K after 1 hr by luminescence spectrometric analysis; conditions: cattle
[32] = Antioxidant activity assessed as DPPH radical scavenging activity at 100 uM incubated for 60 mins in dark relative to control; type: functional

T1 sequence (P02769 whole entry): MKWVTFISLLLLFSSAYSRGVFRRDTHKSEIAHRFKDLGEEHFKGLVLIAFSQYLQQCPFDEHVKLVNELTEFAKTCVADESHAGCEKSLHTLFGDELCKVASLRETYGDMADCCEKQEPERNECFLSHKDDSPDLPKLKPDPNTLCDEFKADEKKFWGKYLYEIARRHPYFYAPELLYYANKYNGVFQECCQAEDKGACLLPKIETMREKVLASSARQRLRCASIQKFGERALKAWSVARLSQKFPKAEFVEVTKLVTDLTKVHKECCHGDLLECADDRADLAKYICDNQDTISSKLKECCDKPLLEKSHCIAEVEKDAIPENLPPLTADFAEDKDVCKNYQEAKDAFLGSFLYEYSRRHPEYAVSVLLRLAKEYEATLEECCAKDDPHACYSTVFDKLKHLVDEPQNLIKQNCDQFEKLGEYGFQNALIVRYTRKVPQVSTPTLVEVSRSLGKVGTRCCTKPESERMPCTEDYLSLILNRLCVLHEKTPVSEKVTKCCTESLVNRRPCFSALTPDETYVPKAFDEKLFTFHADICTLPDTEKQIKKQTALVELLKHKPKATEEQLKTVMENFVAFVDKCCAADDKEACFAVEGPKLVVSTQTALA

Compound: COc1ccc(-c2cc(=O)c3c(O)cc(O[C@@H]4O[C@H](CO[C@@H]5O[C@@H](C)[C@H](O)[C@@H](O)[C@H]5O)[C@@H](O)[C@H](O)[C@H]4O)cc3o2)cc1O [DIOSMIN]
- deltaG (Albumin [1]): -24.53 kJ/mol
- deltaG (Albumin [2]): -22.48 kJ/mol
- Activity (SK-BR-3 [3]): 116%
- IC50 (A549 [4]): > 40 µM
- Activity [5]: inactive
- IC50 (SK-BR-3 [6]): > 100 µM
- Kq (Albumin [7]): 1.95 10^12L/mol/s
- Ka (Albumin [8]): 0.88 10^4L/mol
- TIME [9]: 0.0233 h
- Activity (A549 [10]): inactive
- Activity (MDA-MB-231 [11]): 106%
- Activity (MDA-MB-231 [12]): 104%
- KSV (Albumin [13]): 1.95 10^4L/mol
- KSV (Albumin [14]): 3.08 10^4L/mol
- Activity (A549 [15]): inactive
- Activity (T47D [16]): 96%
- Activity [17]: inactive
- Kq (Albumin [18]): 3.08 10^12L/mol/s
- IC50 (T47D [19]): > 100 µM
- Activity (SK-BR-3 [20]): 78%
- Activity (MDA-MB-231 [21]): 110%
- Ka (Albumin [22]): 1.84 10^4L/mol
- Ka (Albumin [23]): 0.19 10^4L/mol
- Activity (T47D [24]): 99%
- Activity (T47D [25]): 105%
- Activity (SK-BR-3 [26]): 104%
- deltaG (Albumin [27]): -19.61 kJ/mol
- KSV (Albumin [28]): 1.18 10^4L/mol
- deltaH (Albumin [29]): -146.68 kJ/mol
- IC50 (MDA-MB-231 [30]): 70 µM
- Kq (Albumin [31]): 1.18 10^12L/mol/s
- Activity [32]: 14%
